Measurements from paper PMC8583417, “Evaluation of the Antimicrobial Efficacy of N-Acetyl-L-Cysteine, Rhamnolipids, and Usnic Acid—Novel Approaches to Fight Food-Borne Pathogens” (International Journal of Molecular Sciences, 2021).
Values after ≈ are worked out from the molar mass of the structure shown. Marks after values point to notes of the source that are not given here.

What was measured:
[1] = system: L. monocytogenes 149; assay: MIC for metabolic activity of preformed biofilm (MTT reduction assay); assay type: cell-based, Listeria monocytogenes; settings: ≥80% inhibition, 20 h with substance
Description: (§1) Ten concentrations of NAC, RLs, and UA were tested to determine the minimum inhibitory concentration for planktonic growth, and subsequently, the six highest concentrations were applied on preformed biofilms to evaluate the biofilm eradication ability of the compounds. MIC was defined as the lowest substance concentration able to inhibit at least 80% of microbial growth (MICPC80 for planktonic cells, MICBC80 for further growth of biofilm cells), inhibit 80% of metabolic activity (MICBM80 for biofilm metabolic activity, MICMPB80 for metabolic activity of preformed biofilm), prevent biofilm formation by at least 80% (MICBF80 for biofilm formation), or reduce a preformed biofilm by at least 80% (MICBR80 for biofilm reduction). The results of MICs are summarized in Table 1 (planktonic cells) and Table 2 (biofilm-associated cells).
(§2) The determination of MICs was performed according to Chlumsky et al.. Briefly, 96-well flat-bottomed microtiter plates were inoculated with 75 µL (for biofilm formation) or 100 µL (for preformed biofilm) of bacterial suspension (A625nm 0.08 to 0.1) in technical triplicates and were then carefully mixed with the dilution series of the test substances (24 h cultivation at 25 °C for S. Infantis, 37 °C for other strains) or were directly cultivated to preform biofilms (18 h). For a positive control of bacterial growth, the inoculum was mixed with a pure sterile medium. […] To evaluate planktonic cells growth (MICPC80) and further growth of biofilm cells (MICBC80), the optical density of the content of the microtiter plates was measured spectrophotometrically at 625 nm before and after 24 h (for biofilm formation) of cultivation or before and after additional 20 h incubation with the tested compound (for preformed biofilm). […] To evaluate the inhibition of biofilm formation (MICBF80) and reduction in preformed biofilms (MICBR80), biomass was quantified using crystal violet staining, and its metabolic activity (MICBM80 and MICMPB80) was estimated by using the MTT (thiazyl tetrazolium bromide, Sigma-Aldrich, USA) reduction assay, both measured spectrophotometrically at 595 nm.
(§3) All inhibitions were calculated using the formula of Chlumsky et al. below (Equation (1)):(1) A625(595)nm inhibition (%)=A625(595)nm (control) – A625(595)nm(natural substance)/A625(595)nm (control)× 100 where A625(595)nm (control) is the absorbance of bacterial suspension/biofilm itself, and A625(595)nm(natural substance) is the absorbance of the bacterial suspension/biofilm with the added natural substance (NAC, RLs, and UA).
(§4) When the minimum inhibitory concentration could not be determined, the MIC was established as >the highest tested concentration for NAC, RLs, and UA.

[2] = system: L. monocytogenes 164; assay: as above; assay type: cell-based, Listeria monocytogenes; settings: ≥80% inhibition, 20 h with substance
Description: as §1, §2, §3, §4

[3] = system: S. aureus 816; assay: MIC for biofilm formation (crystal violet staining); assay type: cell-based, Staphylococcus aureus; settings: ≥80% prevention, 24 h
Description: as §1, §2, §3, §4

[4] = system: S. aureus 1241; assay: as above; assay type: cell-based, Staphylococcus aureus; settings: ≥80% prevention, 24 h
Description: as §1, §2, §3, §4

[5] = system: S. aureus 1241; assay: MIC for reduction of preformed biofilm (crystal violet staining); assay type: cell-based, Staphylococcus aureus; settings: for maximal achieved inhibition (MICBR80 not reached), biofilm reduction: preformed biofilm, within tested concentrations; for MICBR80: ≥80% reduction of preformed biofilm (18 h), 20 h with substance
Description: as §1
(§5) The determination of MICs was performed according to Chlumsky et al.. Briefly, 96-well flat-bottomed microtiter plates were inoculated with 75 µL (for biofilm formation) or 100 µL (for preformed biofilm) of bacterial suspension (A625nm 0.08 to 0.1) in technical triplicates and were then carefully mixed with the dilution series of the test substances (24 h cultivation at 25 °C for S. Infantis, 37 °C for other strains) or were directly cultivated to preform biofilms (18 h). For a positive control of bacterial growth, the inoculum was mixed with a pure sterile medium. Furthermore, the sterile medium was included in the plate as a marker of potential microbial contamination. To evaluate planktonic cells growth (MICPC80) and further growth of biofilm cells (MICBC80), the optical density of the content of the microtiter plates was measured spectrophotometrically at 625 nm before and after 24 h (for biofilm formation) of cultivation or before and after additional 20 h incubation with the tested compound (for preformed biofilm). The difference of A625nm was considered as a measure of the ability of cells to grow in the presence of the tested substances. To evaluate the inhibition of biofilm formation (MICBF80) and reduction in preformed biofilms (MICBR80), biomass was quantified using crystal violet staining, and its metabolic activity (MICBM80 and MICMPB80) was estimated by using the MTT (thiazyl tetrazolium bromide, Sigma-Aldrich, USA) reduction assay, both measured spectrophotometrically at 595 nm.
as §3, §4

[6] = system: S. Infantis S59; assay: MIC for biofilm metabolic activity (MTT reduction assay); assay type: cell-based, Salmonella enterica Infantis; settings: for MICBM80: ≥80% inhibition, 24 h
Description: as §1, §5, §3, §4

[7] = system: S. Infantis S13; assay: as above; assay type: cell-based, Salmonella enterica Infantis; settings: for MICBM80: ≥80% inhibition, 24 h
Description: as §1, §5, §3, §4

[8] = system: HCAEC (primary human coronary artery endothelial cells); assay: Acute cytotoxicity, resazurin assay; assay type: cell-based; settings: 72 h
Description: (§6) To test the acute cytotoxicity of the compounds, the following cell lines were used: primary human renal tubular epithelial cells (HRTEC; Evercyte, Vienna, Austria); human keratinocytes (HaCat; Thermo Fisher Scientific, Waltham, MA, USA); human dermal fibroblasts (HDF; Merck, Kenilworth, NJ, USA); human epithelial kidney cells (HEK 293; ATCC, Manassas, VI, USA); primary human coronary artery endothelial cells (HCAEC; ATCC, Manassas, VI, USA). The cell lines were maintained in a proper cultivation medium—HaCat, HDF, and Hek 293 in DMEM; HRTEC in VCB; HCAEC in ProxUp. The cytotoxicity experiment was realized according to Tran et al.. Briefly, the cells were counted by the Cellometer Auto T4 (Nexcelom Bioscience, Lawrence, MA, USA), and the cell suspension containing a cell density of 10^5 cells/mL was split into the 96-well plate, with 100 µL per well. The plates were then incubated for 24 h at 37 °C in a humidified atmosphere of 5% CO2. Then, the plates were washed three times with PBS, and the tested natural compounds were added using binary dilution in a proper medium. After 72 h of incubation, the cell viability was tested by resazurin assay. The fluorescence was measured by a SpectraMax i3× microplate reader (San Jose, CA, USA) at a wavelength of 560 nm excitation/590 nm emission.
(§7) The cytotoxicity results are expressed as the average IC50 ± standard error of the mean (SEM). Values of IC50 were obtained by using the online tool Quest Graph IC50 Calculator (AAT Bioquest Inc., Sunnyvale, CA, USA). One-way analysis of variance (ANOVA) was used followed by Duncan’s post hoc test (p < 0.05) to show the differences between the groups. For ANOVA, the Statistica software (Tibco Software Inc., Palo Alto, CA, USA) was used in version 12.

[9] = system: HRTEC (primary human renal tubular epithelial cells); assay: Acute cytotoxicity, resazurin assay; assay type: cell-based; settings: 72 h
Description: as §6, §7

[10] = system: HaCat (human keratinocytes); assay: Acute cytotoxicity, resazurin assay; assay type: cell-based; settings: 72 h
Description: as §6, §7

[11] = system: HEK 293 (human epithelial kidney cells); assay: Acute cytotoxicity, resazurin assay; assay type: cell-based
Description: as §6, §7

[12] = system: HDF (human dermal fibroblasts); assay: Acute cytotoxicity, resazurin assay; assay type: cell-based; settings: 72 h
Description: as §6, §7

[13] = system: S. Infantis S59; assay: MIC for metabolic activity of preformed biofilm (MTT reduction assay); assay type: cell-based, Salmonella enterica Infantis; settings: for MICMPB80: ≥80% inhibition, 20 h with substance
Description: as §1, §5, §3, §4

[14] = system: S. Infantis S13; assay: as above; assay type: cell-based, Salmonella enterica Infantis; settings: for MICMPB80: ≥80% inhibition, 20 h with substance
Description: as §1, §5, §3, §4

[15] = system: Gram-negative bacteria; assay: Reduction of preformed biofilm, summary over strains; assay type: cell-based
Description: as §5, with “The difference of A625nm was considered as a measure of the ability of cells to grow in the presence of the tested substances.” left out, “nm. […]” for “nm.”

[16] = system: Gram-positive bacteria; assay: as above; assay type: cell-based; settings: Gram-positive strains other than L. monocytogenes 164
Description: as §5, with “The difference of A625nm was considered as a measure of the ability of cells to grow in the presence of the tested substances.” left out, “nm. […]” for “nm.”

Row | SMILES | MICMPB80 [1] [µg/mL] | MICMPB80 [2] [µg/mL] | MICBF80 [3] [µg/mL] | MICBF80 [4] | maximal achieved inhibition (MICBR80 not reached), biofilm reduction [5] [%] | MICBR80 [5] | MICBM80 [6] [µg/mL] | MICBM80 [7] | MICMPB80 [13] | MICMPB80 [14] | other results
1 | CC(=O)N[C@@H](CS)C(=O)O [NAC, N-Acetyl-L-cysteine] | 6250 | 6250 | 3130 | 12,500 µg/mL | 31 | > 100,000 µg/mL | 6250 | 12,500 µg/mL | 12,500 µg/mL | 12,500 µg/mL | IC50 ([8]; Homo sapiens, Endothelial cell): 1830 ± 90 µg/mL (≈ 11.2 mM); IC50 ([9]; Homo sapiens, Epithelial cell): 1570 ± 70 µg/mL (≈ 9.62 mM); IC50 ([10]; Homo sapiens, HaCaT): 4020 ± 470 µg/mL (≈ 24.6 mM); IC50 ([11]; Homo sapiens, HEK293, 72 h): 1940 ± 250 µg/mL (≈ 11.9 mM); IC50 ([12]; Homo sapiens, Fibroblast): 460 ± 20 µg/mL (≈ 2.82 mM)
2 | CC(=O)c1c(O)c(C)c(O)c2c1OC1=CC(=O)C(C(C)=O)C(=O)C12C (single isomer, unassigned; (+)) [UA, (+)-usnic acid] | 3.91 | 1.96 | 0.24 | 0.24 µg/mL | 72 | > 31.3 µg/mL | > 31.3 | > 31.3 µg/mL | > 31.3 µg/mL | > 31.3 µg/mL | maximum observed reduction of preformed biofilm [15]: up to 30%; maximum observed reduction of preformed biofilm, range over strains [16]: 35–72%; maximal achieved inhibition (MICBM80 not reached) ([6]; within tested concentrations): 47%; maximal achieved inhibition (MICBM80 not reached) ([7]; within tested concentrations): 41%; IC50 (µg/mL) ([8]; HCAEC, cytotoxicity, resazurin, average of 3 repetitions with SEM): 0.03 ± 0.01 ^i µg/mL; IC50 (µg/mL) ([9]; HRTEC, cytotoxicity, resazurin, average of 3 repetitions with SEM): 3.06 ± 0.17 ^g µg/mL; IC50 (µg/mL) ([10]; HaCat, cytotoxicity, resazurin, average of 3 repetitions with SEM): 0.59 ± 0.14 ^h µg/mL; IC50 (µg/mL) ([11]; HEK 293, cytotoxicity, 72 h, resazurin, average of 3 repetitions with SEM): 2.75 ± 0.22 ^g µg/mL; IC50 (µg/mL) ([12]; HDF, cytotoxicity, resazurin, average of 3 repetitions with SEM): 4.35 ± 0.41 ^f µg/mL; maximal achieved inhibition (MICMPB80 not reached) ([13]; within tested concentrations): 26%; maximal achieved inhibition (MICMPB80 not reached) ([14]; within tested concentrations): 17%
